Test results published in US12053513B2, “Cancer-specific T-cell receptors” (UNIVERSITY COLLEGE CARDIFF CONSULTANTS LTD., priority 2018, dated 2024).

How the values were obtained:
Type in all cases: cell-based, human
[1] = tested on: CD8+ T-cells from HLA A2+ healthy donors; test: Priming of CD8+ T-cells from healthy donors, tetramer staining; settings: three healthy donors, tetramers, compared to WT peptides
Description: To generate T-cell peptide lines, CD8 T-cells were purified from the PBMCs of HLA A2+ donors using CD8 microbeads according to the manufacturer's instructions (Miltenyi Biotech, Bergisch Gladbach, Germany). Purified CD8 cells (3×10^6) were co-incubated with autologous CD8neg cells (6-8×10^6) in 24 well plates in 2 mL of T-cell media, but with no IL-15. 25 μM of each peptide was used. The cultures had 50% of the media changed thrice weekly. Tetramer staining was performed as above, using 500,000 cells per tube. Each T-cell line was used in an IFNγ enzyme linked immunosorbent spot (ELISpot) assay with cell lines MDA-MB-231, melanoma MM909.24 and Saos-2. 50,000 T-cells and 15,000 cancer cells were used per well. Incubation was performed for 48 h, and the assay developed according the manufacturer's instructions (Mabtech, Nacka Strand, Sweden).
CPL assay of CR24 was performed as described above. Candidate peptide agonists were designed using the CR24 CPL and an online algorithm (wsb.warwick.ac.uk/wsbcToolsWebpage/user_cases.php). Priming of CD8 T-cells from healthy donors, tetramer staining and chromium release cytotoxicity assays were performed as described above.

[2] = tested on: CD8 T-cells from a renal cell carcinoma (RCC) and chronic lymphocytic leukaemia (CLL) patient; test: Priming of CD8 T-cells from RCC and CLL patients, TAPI-0 assay or tetramer staining; settings: primed 28 days
Description: (§1) (FIG. 14A) CD8 T-cells from a renal cell carcinoma (RCC) and chronic lymphocytic leukaemia (CLL) patient were left unprimed or primed with […] (SEQ ID NO: 80) peptide for 28 days. […] (SEQ ID NO: 80) peptide for 28 days.

autologous cancer cells = test: Killing of autologous cancer cells by primed CD8s (RCC and CLL patient); settings: compared to unprimed T-cells
Description: as §1

[3] = tested on: CD8 T-cells from an acute myeloid leukaemia (AML) patient and two CLL patients; test: Priming of CD8 T-cells from AML and CLL patients, IMP-2 tetramer; settings: primed 28 days, versus unprimed
CLL cells = test: Killing assay with primed T-cells from CLL patient 3; settings: compared to IMP-2 primed CD8s
Description: as §1

[4] = tested on: autologous melanoma cells; test: Chromium release cytotoxicity assay of peptide primed T-cell lines; settings: patient 37; compared to WT Melan A peptide primed T-cells

| Sequence | priming of Melan A, BST2 and IMP2 T-cells [1] | MTSAIGILPV specific T-cells after priming [2] | killing of autologous cancer cells by primed CD8s (autologous cancer cells) | proportion of IMP-2 specific T-cells after priming [3] | killing of CLL cells by primed T-cells (CLL cells) | lysis of autologous melanoma cells by primed T-cells [4] | priming of Melan A, BST2 and IMP2 T-cells ([1]; listed as MTSAIGVLVP) |
| --- | --- | --- | --- | --- | --- | --- | --- |
| ITSAIGILPV (listed as Homo sapiens) [APL 2] | exhibiting effect across each donor |  |  |  |  |  |  |
| MTSAIGILPV (listed as Homo sapiens) [APL 5] | most effective super-agonist | presence | killed more autologous cancer cells than the unprimed T-cells | induced a greater proportion of IMP-2 cells | killed more CLL cells than the IMP-2 primed CD8s | superior lysis | most effective of the candidate super-agonists at priming |
